Where “and” joins values, the source holds several entries; their conditions need not be identical. Equal entries are not always repeated. Entries after “also recorded” stand apart in the source; their conditions may differ. Each block holds one compound with its values, some of them ahead of it.
Key:
[1] = APS of LOU064 drug substance, closed vessel with or without nitrogen purge; type: physicochemical
Experimental: (§1) • Limit-test by LC-MS (SIM mode), AJS-ES, positive mode, SIM Ion: 483.2 [M+H]+ • Column: YMC-Triart C18, 100×3.0 mm, particle size 1.9 μm, 12 nm • Mobile phase A: Dissolve 0.315 g of Ammonium formate in 1000 ml of water, add 0.5 mL of formic acid • Mobile phase B: Methanol • Sample solvent: Methanol+0.2% (v/v) Formic acid • Sample solution: approx. 100 mg of the sample in 20 mL • Flow: 0.6 mL/min • Injection volume: 3 μL • Autosampler cooled, 8° C. • Column temperature. 80° C. • Gradient: […]
Samples of batches of LOU064 drug substance were prepared in duplicated in closed container, with one sample being purged with nitrogen and the other not.
(§2) The pulled samples were analyzed by HPLC-MS as per method described in example 1 and reported below in tables 8 and 9.

[2] = Accelerated predictive stability (APS) of LOU064 drug substance, open dish; type: physicochemical; conditions: for Nitrosamine impurity: open dish
Experimental: as §1
A statistical based approach, Accelerated Predictive Stability (APS), using the humidity modified Arrhenius equation [Waterman and al., International Journal of Pharmaceutics 293 (1-2), 101-125 (2005)] is applied to understand stability behavior and predict the retest period. […] Short studies are conducted on open dish samples of representative batch(es) of drug substance at accelerated conditions using a wide range of temperatures and humidity with the goal of reaching the specification limit for the identified retest period limiting attributes at each condition as detailed below. […] The humidity corrected Arrhenius equation reflects both the influence of the temperature, and the moisture on the kinetics of the degradation product formation. The resulting open-dish data are fitted to a humidity-corrected Arrhenius equation^1 using ASAPprime® (current version 6.0): […]
3 batches of LOU064 drug substance were placed in open dish under the protocol summarized below:
as §2

[3] = system: Salmonella typhimurium strain TA98; assay: Enhanced Ames Test (EAT), strain TA98; conditions: TA98, presence of hamster S-9
Experimental: (§3) N-(3-(6-amino-5-(2(methyl)(nitroso)amino)ethoxy)pyrimidin-4-yl)-5-fluoro-2-methylphenyl)-4-cyclopropyl-2-fluorobenzamide was evaluated in the EAT performed under GLP following the EMA and FDA guidance (2023) for the EAT conditions for N-nitrosamines.
(§4) In this study N-(3-(6-amino-5-(2(methyl)(nitroso)amino)ethoxy)pyrimidin-4-yl)-5-fluoro-2-methylphenyl)-4-cyclopropyl-2-fluorobenzamide was evaluated for mutations in Salmonella typhimurium strains TA98, TA100, TA1535 and TA1537 and Escherichia coli strain WP2 uvrA pKM101, both in the absence and presence of 30% rat and hamster metabolic activation (β-naphthoflavone/phenobarbital-induced rat and hamster liver post-mitochondrial S-9 fraction). The test used pre-incubation method (30 minutes). N-(3-(6-amino-5-(2(methyl)(nitroso)amino)ethoxy)pyrimidin-4-yl)-5-fluoro-2-methylphenyl)-4-cyclopropyl-2-fluorobenzamide was formulated in dimethyl sulfoxide (DMSO) at concentrations of 5, 16, 50, 160, 500, 1600 and 5000 μg/plate.
(§5) Following the recommendations of the EAT, in addition to the concurrent strain-specific positive controls, two nitrosamine positive controls, i.e. N-nitrosodiethylamine (NDEA) and N-methyl-N-nitroso-(2-phenylethyl)amine (MNPA) were used that are known to be mutagenic in the presence of S-9.

[4] = Additional stress testing of F8 (inert gas, open vial, light); type: physicochemical; conditions: for formation of nitrosamine upon storage: several days, room temperature
Description: (§6) The impact of protective gas (nitrogen) for storage vs storage in non-protected atmosphere, of light exposed vs dark conditions and the effect of temperature was investigated. In addition, the stability study samples pulled after 12 M of storage at different temperature and humidity were included into the assessment.

[5] = Stability of intermediate F8: nitrosamine content upon air exposure; type: physicochemical
Experimental: as §1, with “0.5 ml” for “0.5 mL”

[6] = Stability of F8: nitrosamine content after 12 months storage; type: physicochemical; conditions: for growth of nitrosamine-content upon storage / change of nitrosamine-content upon storage: 12M; for Nitrosamine content in F8: double polyethylene-bags
Experimental: as §1, with “0.5 ml” for “0.5 mL”
as §6

[7] = Formulation analyses of EAT dosing formulations in DMSO; type: physicochemical; conditions: 6 hrs at room temperature
[8] = system: Salmonella typhimurium strain TA100; assay: Enhanced Ames Test (EAT), strain TA100
Experimental: as §3, §4, §5

[9] = system: Salmonella typhimurium strains TA98, TA100, TA1535 and TA1537 and Escherichia coli strain WP2 uvrA pKM101; assay: Enhanced Ames Test (EAT), all tester strains; type: cell-based
Experimental: The test used pre-incubation method (30 minutes).

[10] = system: Salmonella typhimurium strain TA1535; assay: Enhanced Ames Test (EAT), strain TA1535; conditions: TA1535, presence of hamster S-9
Experimental: as §3, §4, §5

Nitrosamine without Nitrogen purge ([1]; 60° C., 21 days): 72.5 ppb
nitrosamine with Nitrogen purge ([1]; 60° C., 21 days): 86.5 ppb
Nitrosamine without Nitrogen purge ([1]; 60° C., 27 days): 109.8 ppb
nitrosamine with Nitrogen purge ([1]; 60° C., 27 days): 110.4 ppb
Nitrosamine without Nitrogen purge ([1]; 70° C., 21 days): 67.0 ppb
nitrosamine with Nitrogen purge ([1]; 70° C., 21 days): 76.6 ppb
Nitrosamine without Nitrogen purge ([1]; 70° C., 27 days): 116.0 ppb
nitrosamine with Nitrogen purge ([1]; 70° C., 27 days): 109.4 ppb
Nitrosamine without Nitrogen purge ([1]; 80° C., 21 days): 59.6 ppb
nitrosamine with Nitrogen purge ([1]; 80° C., 21 days): 54.8 ppb
Nitrosamine without Nitrogen purge ([1]; 80° C., 27 days): 114.7 ppb
nitrosamine with Nitrogen purge ([1]; 80° C., 27 days): 119.2 ppb
Nitrosamine without Nitrogen purge ([1]; initial, 0 days): 99.1 ppb
nitrosamine with Nitrogen purge ([1]; initial, 0 days): 99.1 ppb
stability behavior of the nitrosamine impurity ([2]; all APS open dish conditions): stable
Nitrosamine impurity ([2]; 50° C., 75% RH, 14 days): 74.9 ppb
Nitrosamine impurity ([2]; 50° C., 75% RH, 21 days): 75.8 ppb
Nitrosamine impurity ([2]; 50° C., 75% RH, 28 days): 106.5 ppb and 106.8 ppb
Nitrosamine impurity ([2]; 60° C., 11% RH, 21 days): 87.1 ppb
Nitrosamine impurity ([2]; 60° C., 11% RH, 28 days): 113.5 ppb
Nitrosamine impurity ([2]; 60° C., 50% RH, 14 days): 77.0 ppb
Nitrosamine impurity ([2]; 60° C., 50% RH, 28 days): 106.6 ppb
Nitrosamine impurity ([2]; 60° C., 75% RH, 14 days): 69.8 ppb
Nitrosamine impurity ([2]; 60° C., 75% RH, 21 days): 82.7 ppb
Nitrosamine impurity ([2]; 60° C., 75% RH, 28 days): 119.1 ppb
Nitrosamine impurity ([2]; 70° C., 31% RH, 14 days): 77.9 ppb
Nitrosamine impurity ([2]; 70° C., 31% RH, 28 days): 113.3 ppb
Nitrosamine impurity ([2]; 70° C., 50% RH, 21 days): 83.2 ppb
Nitrosamine impurity ([2]; 70° C., 50% RH, 28 days): 108.3 ppb
Nitrosamine impurity ([2]; 70° C., 75% RH, 14 days): 82.6 ppb
Nitrosamine impurity ([2]; 70° C., 75% RH, 21 days): 83.2 ppb
Nitrosamine impurity ([2]; 80° C., 51% RH, 7 days): 105.3 ppb
Nitrosamine impurity ([2]; 80° C., 51% RH, 21 days): 75.5 ppb
Nitrosamine impurity ([2]; initial, 0 days): 99.1 ppb
SMILES: C=CC(=O)N(C)CCOc1c(N)ncnc1-c1cc(F)cc(NC(=O)c2ccc(C3CC3)cc2F)c1C [LOU064 drug substance, N-(3-(6-Amino-5-(2-(N-methylacrylamido)ethoxy)pyrimidin-4-yl)-5-fluoro-2-methylphenyl)-4-cyclopropyl-2-fluorobenzamide]
nitrosamine, stored closed under nitrogen versus closed without nitrogen ([1]; 60-80° C., up to 27 days): no difference observed beyond analytical variability

SMILES: CN(CCc1ccccc1)N=O [MNPA, N-methyl-N-nitroso-(2-phenylethyl)amine]
increase in revertant numbers [3]: up to 1.9 fold

formation of nitrosamine upon storage ([4]; open vial): rapid increase
Nitrosamine in F8 ([5]; Analyzed after 52 h air exp.): 533 ppb
Nitrosamine in F8 ([5]; Analyzed directly after weighting the sample): 86 ppb
growth of nitrosamine-content upon storage ([6]; 30° C./65% RH): > 100%
growth of nitrosamine-content upon storage ([6]; 40° C./75% RH): > 100%
change of nitrosamine-content upon storage ([6]; cold (5° C.)): only a minor rise
change of nitrosamine-content upon storage ([6]; frozen (−20° C.)): no increase
Nitrosamine content in F8 ([6]; 12 months, 5° C.): 323 ppb
Nitrosamine content in F8 ([6]; 12 months, 30° C., 65% RH): 595 ppb
Nitrosamine content in F8 ([6]; 12 months, 40° C., 75% RH): 647 ppb
Nitrosamine content in F8 ([6]; 12 months, −20° C.): 276 ppb
Nitrosamine content in F8 ([6]; T0): 300 ppb
SMILES: CNCCOc1c(N)ncnc1-c1cc(F)cc(NC(=O)c2ccc(C3CC3)cc2F)c1C [F8]
effect of exposure to light on nitrosamine formation ([4]; light exposed vs dark): slightly accelerate conversion of F8 into nitrosamine
formation of nitrosamine upon storage ([4]; stored under inert gas): only a minor, yet constant formation of nitrosamine

SMILES: Cc1c(NC(=O)c2ccc(C3CC3)cc2F)cc(F)cc1-c1ncnc(N)c1OCCN(C)N=O [N-(3-(6-amino-5-(2(methyl)(nitroso)amino)ethoxy)pyrimidin-4-yl)-5-fluoro-2-methylphenyl)-4-cyclopropyl-2-fluorobenzamide]
stability and homogenicity in the formulations [7]: demonstrated stability and homogenicity
increase in revertant numbers ([8]; TA100, presence of hamster S-9): ≥ 2 fold
mutagenicity in the presence of rat S-9 ([9]; 30% rat S-9): not mutagenic
Enhanced Ames Test (EAT) result ([9]; GLP, EMA and FDA guidance (2023) EAT conditions for N-nitrosamines, pre-incubation 30 minutes, 5-5000 μg/plate): positive; also recorded: mutagenic under sensitive metabolic conditions
mutagenicity without metabolic activation ([9]; absence of S-9): not mutagenic
Precipitation observed at ([9]; all tester strains, absence and presence of S-9, formulated in DMSO): 1600 μg/plate and/or 5000 μg/plate
increase in revertant numbers [10]: ≥ 3 fold

SMILES: CCN(CC)N=O [NDEA, N-nitrosodiethylamine, reference compound]
increase in revertant numbers ([8]; TA100, presence of 30% rat S-9): > 2 fold

Reference: US20250243170A1, “REMIBRUTINIB DRUG SUBSTANCE AND DRUG PRODUCT SUBSTANTIALLY FREE OF NITROSAMINE IMPURITY” (NOVARTIS AG, priority 2024, published 2025)
